Data reported in article PMC9696710 (International Journal of Molecular Sciences, 2022).

Assays:
Assay in all cases: stopped-flow CO2 hydrase assay
Type in all cases: biochemical
[1] = biological target: T1, hCA I (Homo sapiens, UniProt P00915); settings: read-out: KI (nM) ^a / hCA I (α-CA)
T1 construct: gene CA1; recombinant, obtained in-house; cytosolic alpha-CA
Description: stopped-flow CO2 hydrase assay on hCA I

[2] = biological target: T2, CgNce103 (Nakaseomyces glabratus, UniProt Q6FTL6); settings: read-out: KI (nM) ^a / CgNce103 (β-CA)
T2 construct: gene NCE103; recombinant, obtained in-house; beta-CA
T2 sequence (Q6FTL6 1-219): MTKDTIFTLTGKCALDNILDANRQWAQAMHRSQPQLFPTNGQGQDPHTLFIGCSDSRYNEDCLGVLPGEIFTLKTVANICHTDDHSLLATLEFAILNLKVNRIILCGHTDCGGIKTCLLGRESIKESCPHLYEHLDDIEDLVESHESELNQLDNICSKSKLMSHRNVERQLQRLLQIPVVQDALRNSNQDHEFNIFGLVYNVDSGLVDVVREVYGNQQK

[3] = biological target: T3, hCA VII (Homo sapiens, UniProt P43166); settings: read-out: KI (nM) ^a / hCA VII (α-CA)
T3 construct: gene CA7; recombinant, obtained in-house; cytosolic alpha-CA
Description: stopped-flow CO2 hydrase assay on hCA VII

[4] = biological target: T4, hCA II (Homo sapiens, UniProt P00918); settings: read-out: KI (nM) ^a / hCA II (α-CA)
T4 construct: gene CA2; recombinant, obtained in-house; cytosolic alpha-CA
Description: stopped-flow CO2 hydrase assay on hCA II

[5] = biological target: T5, MgCA (Malassezia globosa, UniProt A8Q1N3); settings: […] TRIS pH […] Na2SO4, […] h preincubation at room temperature; read-out: KI (nM) ^a / MgCA (β-CA)
T5 construct: gene MGL_1814; recombinant, obtained in-house; beta-CA
T5 sequence (A8Q1N3 1-241): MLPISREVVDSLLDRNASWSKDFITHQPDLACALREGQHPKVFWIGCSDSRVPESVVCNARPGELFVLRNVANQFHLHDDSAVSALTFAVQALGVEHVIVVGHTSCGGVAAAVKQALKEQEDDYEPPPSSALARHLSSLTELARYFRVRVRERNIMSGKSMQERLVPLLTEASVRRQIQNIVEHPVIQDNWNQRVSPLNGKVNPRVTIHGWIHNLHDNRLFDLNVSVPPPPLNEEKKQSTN

T3 sequence (P43166 whole entry): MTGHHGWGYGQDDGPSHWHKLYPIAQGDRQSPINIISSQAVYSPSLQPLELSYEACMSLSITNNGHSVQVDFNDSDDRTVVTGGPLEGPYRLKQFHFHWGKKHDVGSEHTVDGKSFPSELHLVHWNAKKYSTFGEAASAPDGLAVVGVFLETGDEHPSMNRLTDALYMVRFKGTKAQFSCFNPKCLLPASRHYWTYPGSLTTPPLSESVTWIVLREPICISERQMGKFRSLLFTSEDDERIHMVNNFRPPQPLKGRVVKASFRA
T1 sequence (P00915 2-261): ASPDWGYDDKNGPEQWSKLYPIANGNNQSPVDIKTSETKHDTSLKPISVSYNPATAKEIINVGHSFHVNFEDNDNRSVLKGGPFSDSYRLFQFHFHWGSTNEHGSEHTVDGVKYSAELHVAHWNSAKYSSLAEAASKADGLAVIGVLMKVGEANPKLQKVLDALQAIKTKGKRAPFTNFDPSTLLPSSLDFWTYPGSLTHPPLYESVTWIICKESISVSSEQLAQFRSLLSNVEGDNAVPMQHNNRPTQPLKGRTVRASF

SMILES	Ki [1] [nM]	Ki [2] [nM]	Ki [3] [nM]	Ki [4] [nM]	Ki [5] [nM]
NS(=O)(=O)c1ccc(N2CC(=O)N(Cc3ccc(Cl)cc3)C2=O)cc1 [8f, 4-(3-(4-Chlorobenzyl)-2,4-dioxoimidazolidin-1-yl)benzenesulfonamide]	8790	44.9	15.3	62.2	41500
CCN1C(=O)CN(c2ccc(S(N)(=O)=O)cc2)C1=O [8a, 4-(3-Ethyl-2,4-dioxoimidazolidin-1-yl)benzenesulfonamide]	262	46	30.8	25.8	68100
N#Cc1ccc(CN2C(=O)CN(c3ccc(S(N)(=O)=O)cc3)C2=O)cc1 [8g, 4-(3-(4-Cyanobenzyl)-2,4-dioxoimidazolidin-1-yl)benzenesulfonamide]	570	38.4	12	7.2	> 100000
CCCCCCCN1C(=O)CN(c2ccc(S(N)(=O)=O)cc2)C1=O [8b, 4-(3-Heptyl-2,4-dioxoimidazolidin-1-yl)benzenesulfonamide]	747	83.7	187	56.4	95700
NS(=O)(=O)c1ccc(N2CC(=O)N(Cc3ccccc3F)C2=O)cc1 [8l, 4-(3-(2-Fluorobenzyl)-2,4-dioxoimidazolidin-1-yl)benzenesulfonamide]	447	48.8	12.7	1.2	81100
NS(=O)(=O)c1ccc(N2CC(=O)N(Cc3ccc([N+](=O)[O-])cc3)C2=O)cc1 [8h, 4-(3-(4-Nitrobenzyl)-2,4-dioxoimidazolidin-1-yl)benzenesulfonamide]	657	6.6	30.3	6.1	> 100000
NS(=O)(=O)c1ccc(N2CC(=O)N(Cc3ccc(C(F)(F)F)cc3)C2=O)cc1 [8i, 4-(2,4-Dioxo-3-(4-(trifluoromethyl)benzyl)imidazolidin-1-yl)benzenesulfonamide]	601	13.1	14.3	43.3	59600
NS(=O)(=O)c1ccc(N2CC(=O)NC2=O)cc1 [compound 6, 4-(2,4-Dioxoimidazolidin-1-yl)benzenesulfonamide]	504	29.5	61.4	18.1	37200
Cc1ccc(CN2C(=O)CN(c3ccc(S(N)(=O)=O)cc3)C2=O)cc1 [8e, 4-(3-(4-Methylbenzyl)-2,4-dioxoimidazolidin-1-yl)benzenesulfonamide]	2930	18.3	3	32.7	38900
NS(=O)(=O)c1ccc(N2CC(=O)N(Cc3ccccc3)C2=O)cc1 [8d, 4-(3-Benzyl-2,4-dioxoimidazolidin-1-yl)benzenesulfonamide]	837	20.9	5.3	8.7	64600
C=CCN1C(=O)CN(c2ccc(S(N)(=O)=O)cc2)C1=O [8c, 4-(3-Allyl-2,4-dioxoimidazolidin-1-yl)benzenesulfonamide]	234	54.2	19.5	32.6	66600
NS(=O)(=O)c1ccc(N2CC(=O)N(Cc3ccc(Cl)c(Cl)c3)C2=O)cc1 [8m, 4-(3-(3,4-Dichlorobenzyl)-2,4-dioxoimidazolidin-1-yl)benzenesulfonamide]	688	67.9	133	85.6	> 100000
NS(=O)(=O)c1ccc(N2CC(=O)N(Cc3c(F)c(F)c(F)c(F)c3F)C2=O)cc1 [8n, 4-(2,4-Dioxo-3-((perfluorophenyl)methyl)imidazolidin-1-yl)benzenesulfonamide]	415	35.7	16.9	91.2	34900
NS(=O)(=O)c1ccc(N2CC(=O)N(Cc3ccc(OC(F)(F)F)cc3)C2=O)cc1 [8j, 4-(2,4-Dioxo-3-(4-(trifluoromethoxy)benzyl)imidazolidin-1-yl)benzenesulfonamide]	425	5.9	22.4	16.4	> 100000
Cc1cccc(CN2C(=O)CN(c3ccc(S(N)(=O)=O)cc3)C2=O)c1 [8k, 4-(3-(3-Methylbenzyl)-2,4-dioxoimidazolidin-1-yl)benzenesulfonamide]	1080	8.4	18.8	58.3	> 100000
